{
  "source": "patent US20020110808A1",
  "about": "“Toxicant-induced differential gene expression” (priority 2000, published 2002)",
  "key": {"HepG2 cells [1]": {"tested_on": "HepG2 cells", "assay": "Cell morphology after toxicant treatment", "details": "24 hr, 20 mM acetaminophen, 16 mM caffeine or 100 mM thioacetamide", "protocol": "Depending on the desired exposure time, cell treatments began 3 or 4 days after splitting or plating. At this time, the cells were near or at confluency. […] Cell treatments were at 37° C.\nThe general strategy used for identifying toxicant-induced gene expression changes is outlined in Table 2."}, "HepG2 cells [2]": {"tested_on": "HepG2 cells", "assay": "cDNA array (GF200) expression profiling", "assay_type": "cell-based, human", "details": "for Number of genes with statistically significant (p<0.05) change in expression in three or more adjacent time points: 1 to 24 hr time course", "protocol": "Cells were grown in DMEM/F12 medium with 10% fetal bovine serum in tissue culture flasks for 3 days following splitting, at which time they were at or near confluency. […] For each treated sample, an untreated control flask was set up with the same medium. Following the treatment period, mRNA was isolated by affinity purification on oligo(dT) cellulose resin using the Poly(A) Pure mRNA isolation kit from Ambion. RNA quality was assessed by agarose gel electrophoresis, and yields were determined by absorbance at 260 nm.\nRadiolabeled cDNA for array hybridizations were prepared as follows. To a solution of 2 μg of RNA in 8 μl DEPC-treated water was added 2 μl of 1 μg/μl oligo(dT) (10-20 mer mixture, Research Genetics). After incubation for 10 min at 70° C., the solution was chilled on ice for 2 min, and then added to 6 μl of 5× first strand buffer (250 mM Tris-HCl (pH 8.3), 375 mM KCl, 15 mM MgCl2; Gibco-BRL), 1 μl of 0.1M DTT, 1.5 μl dNTP mix (20 mM each dATP, dGTP and dTTP), 10 μl of 10 mCi/ml [α-^33P]dCTP (1000 Ci/mmol, Amersham), and 1.5 μl of 200 U/μl reverse transcriptase (Superscript II, Gibco-BRL). Following a 90 min incubation at 37° C., cDNA targets were purified by passage through G-50 Sephadex spin columns (Pharmacia) or Bio-Spin 6 columns (BioRad).\nGF200 cDNA arrays (Research Genetics) were washed in 0.5% boiling SDS for 5 min and prehybridized for 3 hrs at 42° C. in 5 ml MicroHyb solution (Research Genetics) containing 5 μl of 1 μg/ml poly(dA) (Research Genetics) and 5 μl of 1 μg/ml human Cot-I DNA (Gibco-BRL) that was denatured for 3 min at 100° C. prior to use. Labeled target nucleic acids, boiled for 3 min, were added directly, and hybridization was allowed to proceed for 16-18 hr at 42° C. in roller bottles in hybridization ovens. Arrays were washed twice in 2× SSC, 1% SDS at room temperature for 2 min, and then twice in 0.5× SSC, 1% SDS at 65° C. for 20 min. Arrays were exposed to storage phosphor screens for 3 days and scanned using a phosphorimager (Molecular Dynamics). Arrays were stripped for reuse by placing in boiling 0.5% SDS and then incubating for 1.5 hr with shaking at room temperature, allowing to solution to cool. After stripping, arrays were exposed to storage phosphor screens overnight to confirm loss of signal.\nSpot intensities were determined using Pathways software (Research Genetics). Data from quadruplicate sets of hybridizations were normalized by local regression using NLR software (Tom Kepler, North Carolina State University). Cluster analysis was carried out using the Clustan Graphics software package from Clustan Limited (Edinburgh)."}, "HepG2 cells [3]": {"tested_on": "HepG2 cells", "assay": "Annexin V assay for apoptosis", "assay_type": "cell-based, human", "details": "20 mM acetaminophen, 16 mM caffeine, 100 mM thioacetamide, by 24 hr", "protocol": "Translocation of phosphatidyl serine to the cell membrane was measured by affinity binding to annexin V using the Apotest Biotin kit from NeXins Research B.V. (The Netherlands). HepG2 cells were cultured as above and plated into Cytostar-T scintillating microplates (Amersham) at 10^6 cells/well and grown for 3 days prior to treatment as above. Following treatment, 50 μl/well of 4 μg/ml annexin V-biotin in 2× Ca^2+ binding buffer was added. Wells with no annexin V-biotin were included as background controls. Following incubation for 20 min at room temperature, 50 μl/well of 0.5 μCi [^35S] streptavidin (Amersham) in 2× Ca^2+ binding buffer was added and incubated for 2 hrs at room temperature with gentle shaking. Plates were spun down at 1,100 rpm for 8 min and read on a Packard TopCount instrument (see e.g., Vermes et al., J. Immunol. Methods 185:81-93 (1995))."}, "HepG2 cells [4]": {"tested_on": "HepG2 cells", "assay": "Caspase-3 assay for apoptosis", "assay_type": "cell-based, human", "details": "100 mM thioacetamide, 24 hr", "protocol": "Caspase-3 assay for apoptosis. Activation of caspase-3, an intracellular cysteine protease, was measured by cleavage of a caspase-specific peptide using the Caspase-3 Colorimetric Assay kit from R&D Systems. HepG2 cells were cultured and treated as above in T-75 tissue culture flasks. Following treatment, cells were scraped off and spun down. The assay was performed according to the kit instructions using 350 μl/flask of lysis buffer."}, "HepG2 cells [5]": {"tested_on": "HepG2 cells", "assay": "Differential display PCR (DD-PCR) of mRNA from treated cells", "assay_type": "cell-based, human", "details": "visual inspection, not confirmed", "protocol": "For each reverse transcription reaction, 50 ng of mRNA was incubated with a 3′ Anchored Primer (1 μM) at 65° C. for 5 minutes. The tubes were chilled and spun briefly. […] The final volume was 20 μl. Tubes were heated to 25° C. for 10 min, 42° C. for 60 min, and 70° C. for 15 min. The cDNA produced was either used immediately or stored at −20° C.\nThe DD-PCR was performed under the conditions recommended by Genomyx Corporation: 95° C. for 2 min; 4 cycles of 92° C. for 15 sec, 46° C. for 30 sec, 72° C. for 2 min; 25 cycles of 92° C. for 15 sec, 60° C. for 30 sec, 72° C. for 2 min; and one cycle of 72° C. for 7 min, followed by cooling at 4° C.\nStop solution (11 μl) was added to each reaction. The tubes were then heated for 2 min at 95° C. A 3-μl aliquot of each reaction was run on a 4.5% denaturing polyacrylamide gel for 16 hours at 800 V, 50° C. Under these conditions, bands ranging from 300 to 1200 base-pairs were well-resolved. Band excision and reamplification were performed according to the instructions given in the Genomyx Corporation protocol. The reamplification reaction mixture was added directly to the excised band and the PCRs were performed under the same conditions as the original DD-PCR, with the exceptions that the M13R(−48) and T7 primers (SEQ ID NO: 3 AND SEQ ID NO: 2, respectively) were used instead of the original anchored and arbitrary primers and [α-^33P]dATP was omitted. The PCR products were purified with S-400 HR microspin columns (Pharmacia)."}, "[6]": {"details": "20 mM acetaminophen, 16 mM caffeine, 100 mM thioacetamide"}},
  "data": [
    {"smiles": "CC(=N)S", "note": "[thioacetamide]", "values": [
      {"measurement": "Cell morphology of treated cells", "setting": "HepG2 cells [1]", "result": "somewhat dense and grainy"},
      {"measurement": "Metallothionein-1H induction", "setting": "HepG2 cells [2]", "result": "strongly induced"},
      {"measurement": "Number of genes with statistically significant (p<0.05) change in expression in three or more adjacent time points", "setting": "HepG2 cells [2]; [6]", "result": 215},
      {"measurement": "Global differential gene expression (rms) over time", "setting": "HepG2 cells [2]; 1 to 24 hr, 20 mM acetaminophen, 16 mM caffeine, 100 mM thioacetamide", "result": "a high degree of differential expression is observed both at early and late time points"},
      {"measurement": "Expression ratio (treated/control), Array: MT-1B (H72722)", "setting": "HepG2 cells [2]; Thioacetamide (24 hr)", "result": 15},
      {"measurement": "Expression ratio (treated/control), Array: MT-1G (H53340)", "setting": "HepG2 cells [2]; Thioacetamide (24 hr)", "result": 15},
      {"measurement": "Expression ratio (treated/control), Array: MT-1H (H77766)", "setting": "HepG2 cells [2]; Thioacetamide (24 hr)", "result": 16},
      {"measurement": "Expression ratio (treated/control), Array: MT-1L (N80129)", "setting": "HepG2 cells [2]; Thioacetamide (24 hr)", "result": 14},
      {"measurement": "Expression ratio (treated/control), Array: MT-2 (R16596)", "setting": "HepG2 cells [2]; Thioacetamide (24 hr)", "result": 15},
      {"measurement": "Apoptosis, annexin V assay", "setting": "HepG2 cells [3]", "result": "induces the greatest response"},
      {"measurement": "Caspase-3 activation", "setting": "HepG2 cells [4]", "result": "significant activation"}
    ]},
    {"smiles": "CC(=O)Nc1ccc(O)cc1", "note": "[acetaminophen]", "values": [
      {"measurement": "Number of genes with statistically significant (p<0.05) change in expression in three or more adjacent time points", "setting": "HepG2 cells [2]; [6]", "result": 258},
      {"measurement": "LDH-A down-regulation on arrays", "setting": "HepG2 cells [2]; 24 hr, 20 mM acetaminophen, wash 0.5× SSC at 65° C.", "result": 11, "unit": "fold"},
      {"measurement": "Metallothionein-1G induction on arrays", "setting": "HepG2 cells [2]; acetaminophen, 24-hr time point", "result": 18, "unit": "fold"},
      {"measurement": "TTF-1 interacting peptide 21 up-regulation on arrays", "setting": "HepG2 cells [2]; acetaminophen, 12 hr", "result": 2.6, "unit": "fold"},
      {"measurement": "Number of difference bands on DD-PCR gel, Decreased", "setting": "HepG2 cells [5]; acetaminophen 0.02 mM", "result": 0},
      {"measurement": "Number of difference bands on DD-PCR gel, Increased", "setting": "HepG2 cells [5]; acetaminophen 0.02 mM", "result": 0},
      {"measurement": "Number of difference bands on DD-PCR gel, Decreased", "setting": "HepG2 cells [5]; acetaminophen 0.2 mM", "result": 0},
      {"measurement": "Number of difference bands on DD-PCR gel, Increased", "setting": "HepG2 cells [5]; acetaminophen 0.2 mM", "result": 0},
      {"measurement": "Number of difference bands on DD-PCR gel, Decreased", "setting": "HepG2 cells [5]; acetaminophen 2 mM", "result": 1},
      {"measurement": "Number of difference bands on DD-PCR gel, Increased", "setting": "HepG2 cells [5]; acetaminophen 2 mM", "result": 4},
      {"measurement": "Number of difference bands on DD-PCR gel, Decreased", "setting": "HepG2 cells [5]; acetaminophen 20 mM", "result": 16},
      {"measurement": "Number of difference bands on DD-PCR gel, Increased", "setting": "HepG2 cells [5]; acetaminophen 20 mM", "result": 18}
    ]}
  ]
}
